Measured values: ChEMBL document CHEMBL4665685, “Neuroprotective Effects of Triterpenoids from Camellia japonica against Amyloid β-Induced Neuronal Damage” (J Nat Prod, 2020)
Active and inactive are the calls of the source. The rule behind the calls is not given here.

Legend:
[1] = system: HT-22; assay: Neuroprotective activity against amyloid beta (1 to 42 residues)-induced cell death in mouse HT22 cells assessed as increase in cell viability at 20 uM after 24 hrs by MTT assay (reference value: 51.2%); format: functional
[2] = system: HT-22; assay: Neuroprotective activity against amyloid beta (1 to 42 residues)-induced cell death in mouse HT22 cells assessed as increase in cell viability at 1 uM after 24 hrs by MTT assay (reference value: 51.2%); format: functional
[3] = system: HT-22; assay: Neuroprotective activity against amyloid beta (1 to 42 residues)-induced cell death in mouse HT22 cells assessed as increase in cell viability at 5 uM after 24 hrs by MTT assay (reference value: 51.2%); format: functional
[4] = biological target: Beta-secretase 1 (Homo sapiens) (UniProt P56817); assay: Inhibition of BACE1 (unknown origin) at 20 uM measured after 60 mins by FRET assay relative to control
[5] = system: HT-22; assay: Neuroprotective activity in mouse HT-22 cells assessed as reduction in amyloid beta (1 to 42 residues)-induced glutamate level at 40 uM after 24 hrs by fluorescence assay (reference value: 3.17); format: functional
[6] = system: HT-22; assay: Neuroprotective activity against amyloid beta (1 to 42) transfected mouse HT22-ARE cells assessed as reversal of increase in antioxidant response element-luciferase activity at 40 uM after 18 hrs by reporter gene assay; format: functional, cell-based
[7] = system: HT-22; assay: Neuroprotective activity against amyloid beta (1 to 42) transfected mouse HT-22 cells assessed as protection against amyloid-induced inflammation at 40 uM after 24 hrs by MTT assay; format: functional, cell-based
[8] = system: BV-2; assay: Cytotoxicity against mouse BV2 cells assessed as reduction in cell viability at 40 uM after 18 hrs by MTT assay; format: cell-based; details: bv-2, 18 h
[9] = biological target: Beta-secretase 1 (Homo sapiens) (UniProt P56817); assay: Inhibition of BACE1 (unknown origin) at 10 uM measured after 60 mins by FRET assay
[10] = system: HT-22; assay: Cytotoxicity against mouse HT-22 cells assessed as reduction in cell viability at 40 uM after 24 hrs by MTT assay; format: cell-based; details: ht-22, 24 h
[11] = system: HT-22; assay: Neuroprotective activity against glutamate-induced cell death in mouse HT22 cells assessed as increase in cell viability at 40 uM preincubated for 6 hrs followed by glutamate-challenge and measured after 16 hrs by MTT assay relative to control; format: functional
[12] = system: BV-2; assay: Anti-neuroinflammatory activity in mouse BV-2 cells assessed as reduction in amyloid beta (1 to 42 residues)-induced nitric oxide at 40 uM after 18 hrs; format: functional, cell-based
[13] = system: HT-22; assay: Neuroprotective activity against in amyloid beta (1 to 42) transfected mouse HT22 cells assessed as reduction in overexpression of the green fluorescent pEGFP-C1 gene at 40 uM after 24 hrs by reporter gene assay; format: functional, cell-based

Chain of Beta-secretase 1 (Homo sapiens) (P56817 whole entry, the tested form may be a part): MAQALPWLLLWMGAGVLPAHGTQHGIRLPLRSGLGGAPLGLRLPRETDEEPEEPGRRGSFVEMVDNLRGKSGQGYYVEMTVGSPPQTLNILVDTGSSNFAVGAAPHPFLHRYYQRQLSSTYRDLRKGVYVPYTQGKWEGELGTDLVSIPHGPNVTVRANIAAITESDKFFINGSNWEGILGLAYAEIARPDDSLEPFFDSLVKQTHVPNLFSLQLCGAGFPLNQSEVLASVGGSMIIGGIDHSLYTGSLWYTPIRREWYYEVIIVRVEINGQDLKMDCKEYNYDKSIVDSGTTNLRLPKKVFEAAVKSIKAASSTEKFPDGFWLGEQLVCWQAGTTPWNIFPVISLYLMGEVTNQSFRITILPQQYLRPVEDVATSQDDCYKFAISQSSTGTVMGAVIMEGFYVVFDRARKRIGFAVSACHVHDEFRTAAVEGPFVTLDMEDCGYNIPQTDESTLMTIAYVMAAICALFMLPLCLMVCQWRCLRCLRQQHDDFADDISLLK

## COC(=O)CC[C@@]1(C)C(C(C)(C)O)CC[C@]2(C)[C@@H]1CC=C1[C@@H]3C[C@](C)(CO)CC[C@]3(CO)C(=O)C[C@]12C (some centres undefined)
[1]
  Activity: 68.9%

## CC1(C)CC[C@]2(O)C(=O)C[C@]3(C)C(=CC[C@@H]4[C@@]5(C)CC[C@H](O)C(C)(C)[C@@H]5CC[C@]43C)[C@@H]2C1
[2]
  Activity: 68.9%

## COC(=O)CC[C@@]1(C)C(C(C)(C)O)CC[C@]2(C)[C@@H]1CC=C1[C@@H]3C[C@](C)(CO)CC[C@]3(O)C(=O)C[C@]12C (some centres undefined)
[1]
  Activity: 68.9%

## COC(=O)CC[C@@]1(C)C(C(C)(C)O)C[C@H](O)[C@]2(C)[C@@H]1CC=C1[C@@H]3C[C@](C)(CO)CC[C@]3(O)C(=O)C[C@]12C (some centres undefined)
[1]
  Activity: 68.9%

## CC(C)(O)C1CC[C@]2(C)[C@H](CC=C3[C@@H]4C[C@](C)(CO)CC[C@]4(O)C(=O)C[C@]32C)[C@@]1(C)CCC(=O)O (some centres undefined)
[1]
  Activity: 68.9%

## CC1(C)CC[C@]2(O)C(=O)C[C@]3(C)C(=CC[C@@H]4[C@@]5(C)CC[C@H](O[C@@H]6O[C@H](CO)[C@@H](O)[C@H](O[C@@H]7O[C@H](CO)[C@@H](O)[C@H](O)[C@H]7O[C@@H]7O[C@H](CO)[C@@H](O)[C@H](O)[C@H]7O)[C@H]6O[C@H]6O[C@@H](CO)[C@H](O)[C@@H](O)[C@@H]6O)C(C)(C)[C@@H]5CC[C@]43C)[C@@H]2C1
[3]
  Activity: 68.9%

## CC1(CO)CC[C@]2(O)C(=O)C[C@]3(C)C(=CC[C@@H]4[C@@]5(C)CCC(=O)C(C)(C)[C@@H]5CC[C@]43C)[C@@H]2C1 (some centres undefined)
[4]
  inhibition: 60.6%
[5]
  fold change (FC): 1.81
[6]
  Activity: Active
[7]
  Activity: Active
[8]
  Activity: Non-Toxic
[9]
  inhibition: Active
[10]
  Activity: Non-Toxic
[11]
  Activity: 81.2%
[12]
  Activity: Active
[13]
  Activity: Active

## CO[C@@H]1C=C2[C@@H]3CC(C)(C)CC[C@]3(O)C(=O)C[C@@]2(C)[C@]2(C)CC[C@H]3C(C)(C)C(=O)C[C@@H](O)[C@]3(C)[C@@H]12
[4]
  inhibition: 51.9%
[5]
  fold change (FC): 1.61
[6]
  Activity: Active
[7]
  Activity: Active
[8]
  Activity: Non-Toxic
[9]
  inhibition: Active
[10]
  Activity: Non-Toxic
[11]
  Activity: 77%
[12]
  Activity: Active
[13]
  Activity: Active

## CC1(C)CC[C@]2(CO)[C@H](O)C[C@]3(C)C(=CC[C@@H]4[C@@]5(C)CC[C@H](O)C(C)(C)[C@@H]5CC[C@]43C)[C@@H]2C1 [PRIMULAGENIN]
[2]
  Activity: 60.5%

## O=c1c(O)c(-c2ccc(O)c(O)c2)oc2cc(O)cc(O)c12
[9]
  inhibition: Active

## CC(=O)O[C@H]1CC[C@]2(C)[C@H]3C=CC4=C5CC(C)(C)CC[C@]5(C(=O)O)CC[C@@]4(C)[C@]3(C)CC[C@H]2C1(C)C
[2]
  Activity: 68.9%

## CC1(C)CC[C@]2(O)C(=O)C[C@]3(C)C(=CC[C@@H]4[C@@]5(C)CC[C@H](O[C@@H]6O[C@H](C(=O)O)[C@@H](O)[C@H](O[C@@H]7O[C@H](CO)[C@@H](O)[C@H](O)[C@H]7O[C@@H]7O[C@H](CO)[C@@H](O)[C@H](O)[C@H]7O)[C@H]6O[C@H]6O[C@@H](CO)[C@H](O)[C@@H](O)[C@@H]6O)C(C)(C)[C@@H]5CC[C@]43C)[C@@H]2C1
[3]
  Activity: 68.9%

## CC1(C)CCC2C(=O)C[C@]3(C)C(=C2C1)C=C[C@@H]1[C@@]2(C)CC[C@H](O)C(C)(C)C2CC[C@]13C (some centres undefined)
[3]
  Activity: 68.9%

## CC1(C)CC[C@]2(O)C(=O)C[C@]3(C)C(=CC[C@@H]4[C@@]5(C)CC[C@H](O[C@@H]6O[C@H](C(=O)O)[C@@H](O)[C@H](O[C@@H]7O[C@H](CO)[C@@H](O)[C@H](O)[C@H]7O[C@@H]7O[C@H](CO)[C@@H](O)[C@H](O)[C@H]7O)[C@H]6O)C(C)(C)[C@@H]5CC[C@]43C)[C@@H]2C1
[1]
  Activity: 68.9%

## CC1(C)CC[C@]2(CO)C(=O)C[C@]3(C)C(=CC[C@@H]4[C@@]5(C)CC[C@H](O[C@@H]6O[C@H](C(=O)O)[C@@H](O)[C@H](O)[C@H]6O)C(C)(C)[C@@H]5CC[C@]43C)[C@@H]2C1
[1]
  Activity: 55.5%

## CC1(C)CC[C@]2(C(=O)O)CC[C@]3(C)C(=CC[C@@H]4[C@@]5(C)CC[C@H](O)C(C)(C)C5CC[C@]43C)[C@@H]2C1 (some centres undefined)
[3]
  Activity: 58.6%

## CC(C)(O)C1C[C@H](O)[C@]2(C)[C@H](CC=C3[C@@H]4C[C@](C)(CO)CC[C@]4(O)C(=O)C[C@]32C)[C@@]1(C)CCC(=O)O (some centres undefined)
[1]
  Activity: 68.9%

## CC1(C)CC[C@]2(C(=O)O)C(=O)C[C@]3(C)C(=CC[C@@H]4[C@@]5(C)CC[C@H](O[C@@H]6O[C@H](C(=O)O)[C@@H](O)[C@H](O)[C@H]6O)C(C)(C)[C@@H]5CC[C@]43C)[C@@H]2C1
[1]
  Activity: 72%

## COC(=O)CC[C@@]1(C)C(C(C)(C)O)C[C@H](O)[C@]2(C)[C@@H]1CC=C1[C@@H]3CC(C)(C)CC[C@]3(O)C(=O)C[C@]12C (some centres undefined)
[1]
  Activity: 68.9%

## CC1(C)CC[C@]2(O)[C@H](O)C[C@]3(C)C(=CC[C@@H]4[C@@]5(C)CC[C@H](O)C(C)(C)[C@@H]5CC[C@]43C)[C@@H]2C1
[2]
  Activity: 61.9%

## C=C(C)C1CC[C@]2(C)[C@H](CC=C3[C@@H]4C[C@](C)(CO)CC[C@]4(O)C(=O)C[C@]32C)[C@@]1(C)CCC(=O)O (some centres undefined)
[1]
  Activity: 68.9%

## CC1(C)CC[C@]2(O)C(=O)C[C@]3(C)C(=CC[C@@H]4[C@@]5(C)CC[C@H](O[C@@H]6O[C@H](C(=O)O)[C@@H](O)[C@H](O)[C@H]6O)C(C)(C)[C@@H]5CC[C@]43C)[C@@H]2C1
[3]
  Activity: 68.9%

## CC1(C)CC[C@]2(O)C(=O)C[C@]3(C)C(=C[C@@H](O)[C@@H]4[C@@]5(C)[C@H](O)CC(=O)C(C)(C)[C@@H]5CC[C@]43C)[C@@H]2C1
[4]
  inhibition: 51.1%
[5]
  fold change (FC): 1.42
[6]
  Activity: Active
[7]
  Activity: Active
[8]
  Activity: Non-Toxic
[9]
  inhibition: Active
[10]
  Activity: Non-Toxic
[11]
  Activity: 78.1%
[12]
  Activity: Active
[13]
  Activity: Active

## CCOC(=O)[C@H]1O[C@@H](O[C@H]2CC[C@]3(C)[C@H]4CC=C5[C@@H]6CC(C)(C)CC[C@]6(O)C(=O)C[C@@]5(C)[C@]4(C)CC[C@H]3C2(C)C)[C@H](O)[C@@H](O)[C@@H]1O
[2]
  Activity: 68.9%

## CC1(C)CC[C@]2(O)C(=O)C[C@]3(C)C(=CC[C@@H]4[C@@]5(C)CCC(=O)C(C)(C)[C@@H]5CC[C@]43C)[C@@H]2C1
[1]
  Activity: 68.9%

## CO[C@@H]1C=C2[C@@H]3CC(C)(C)CC[C@]3(O)C(=O)C[C@@]2(C)[C@]2(C)CC[C@H]3C(C)(C)C(=O)C=C[C@]3(C)[C@@H]12
[4]
  inhibition: 61.3%
[5]
  fold change (FC): 1.8
[6]
  Activity: Active
[7]
  Activity: Active
[8]
  Activity: Non-Toxic
[9]
  inhibition: Active
[10]
  Activity: Non-Toxic
[11]
  Activity: 73.8%
[12]
  Activity: Active
[13]
  Activity: Active

## CC(=O)O[C@H]1CC[C@@]2(C)C(CC[C@]3(C)[C@@H]2C(=O)C=C2[C@@H]4CC(C)(C)CC[C@]4(C)CC[C@]23C)C1(C)C (some centres undefined)
[3]
  Activity: 68.9%

## C=C(C)[C@@H]1C[C@H](O)[C@]2(C)[C@H](CC=C3[C@@H]4C[C@](C)(CO)CC[C@]4(O)C(=O)C[C@]32C)[C@@]1(C)CCC(=O)OC
[8]
  Activity: Non-Toxic
[10]
  Activity: Non-Toxic

## CC1(C)CC[C@]2(C(=O)O)C(=O)C[C@]3(C)C(=CC[C@@H]4[C@@]5(C)CC[C@H](O[C@@H]6O[C@H](C(=O)O)[C@@H](O)[C@H](O[C@@H]7O[C@H](CO)[C@@H](O)[C@H](O)[C@H]7O[C@@H]7O[C@H](CO)[C@@H](O)[C@H](O)[C@H]7O)[C@H]6O[C@H]6O[C@@H](CO)[C@H](O)[C@@H](O)[C@@H]6O)C(C)(C)[C@@H]5CC[C@]43C)[C@@H]2C1
[1]
  Activity: 61.7%

## CCCCOC(=O)CC[C@]1(C)[C@H]2CC=C3[C@@H]4C[C@](C)(CO)CC[C@]4(O)C(=O)C[C@@]3(C)[C@]2(C)[C@@H](O)C[C@H]1C(C)(C)O
[8]
  Activity: Non-Toxic
[10]
  Activity: Non-Toxic

## CC(=O)O[C@H]1CC[C@]2(C)[C@H]3CC=C4[C@@H]5CC(C)(C)CC[C@]5(C(=O)O)CC[C@@]4(C)[C@]3(C)CC[C@H]2C1(C)C [ACETYL OLEANOLIC ACID]
[2]
  Activity: 56.3%
